Data: publication PMC5241826, “An extended N-H bond, driven by a conserved second-order interaction, orients the flavin N5 orbital in cholesterol oxidase” (Scientific Reports, 2017)

Molecular target: T1, cholesterol oxidase (COx; H/D-COx) (Streptomyces sp. SA-COO, UniProt P12676)
T1 construct: gene choA; secreted mature form; H/D-exchanged crystal
Assay: joint X-ray/neutron crystal structure, […] A neutron, […] A X-ray
Type: binding
Conditions: H/D-exchanged crystal (D2O soak), room-temperature neutron data, crystallised at pH 5.2; Gly120 N-H to FAD N5 hydrogen bond

T1 sequence (P12676 43-546): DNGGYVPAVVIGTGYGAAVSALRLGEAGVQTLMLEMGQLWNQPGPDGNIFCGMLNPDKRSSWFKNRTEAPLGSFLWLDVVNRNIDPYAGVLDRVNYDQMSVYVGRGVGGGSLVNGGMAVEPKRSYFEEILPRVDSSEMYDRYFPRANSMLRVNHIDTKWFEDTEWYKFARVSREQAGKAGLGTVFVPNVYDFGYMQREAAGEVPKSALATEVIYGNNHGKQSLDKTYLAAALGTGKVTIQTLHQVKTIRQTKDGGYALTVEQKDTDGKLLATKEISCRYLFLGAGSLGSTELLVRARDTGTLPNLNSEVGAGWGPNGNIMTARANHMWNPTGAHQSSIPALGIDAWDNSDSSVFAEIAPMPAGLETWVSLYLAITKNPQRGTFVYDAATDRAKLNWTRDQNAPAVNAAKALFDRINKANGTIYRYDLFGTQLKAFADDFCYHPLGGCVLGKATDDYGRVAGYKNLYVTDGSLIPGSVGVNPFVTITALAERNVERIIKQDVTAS

SMILES: Cc1cc2nc3c(=O)[nH]c(=O)nc-3n(C[C@H](O)[C@H](O)[C@H](O)COP(=O)(O)OP(=O)(O)OC[C@H]3O[C@@H](n4cnc5c(N)ncnc54)[C@H](O)[C@@H]3O)c2cc1C [FAD]
- joint X-ray/neutron crystal structure, 2.2 A neutron, 1.5 A X-ray: one involved in a conserved hydrogen bond between Gly120-NH and FAD-N5
